The values that follow are results of earlier work, collected in patent US20220296868A1, “INTRACRANIAL DELIVERY OF MEDICINAL SOLUTION” (InCube Labs, LLC, priority 2019, published 2022).

Test in series [1]: not given
This is another data set of the same source.

For series [2] the following is noted: in vitro, human liver microsomes.
For the next series, the system named is white blood cell count. To be noted: in vivo.
The conditions of series [3]: hydrochloride salt of topotecan.

Turning to `CC[C@@]1(O)C(=O)OCc2c1cc1n(c2=O)Cc2cc3c(CN(C)C)c(O)ccc3nc2-1` [topotecan], for the setting “pH≤4”, the lactone form entry is listed as “exclusively present”. Moreover, the ring-opened hydroxy-acid form result (physiologic pH) is reported as “predominates”. For the same compound, the “binding to plasma proteins” value in the series on plasma proteins was “about 35%”. For the same compound, in series [1] (N-demethylated metabolite, total topotecan and topotecan lactone, following IV administration), the “mean metabolite:parent AUC ratio” value was “about 3%”. Also, the “total exposure (AUC) versus dose” value in series [1] (cancer subjects, 0.5 to 1.5 mg/m^2 as 30-minute IV infusion) is “approximately dose-proportional”. The metabolism entry in series [2] is given as “metabolized to an Ndemethylated metabolite”. Further, in the series with white blood cell count, the dose-limiting toxicity result is on record as “leukopenia”. In addition, in series [3], the solubility in water result is “freely soluble”.
